Test results from ChEMBL document CHEMBL6134893, “The Exploration of Indole-Based LSD1-Targeted Inhibitors for Enhanced Immune Response in Gastric Cancer via the PD-L1/PD-1 Axis” (J Med Chem, 2025).
pIC50: −log10 of the molar value.

target: Lysine-specific histone demethylase 1A (Mus musculus) (UniProt Q6ZQ88); assay: Inhibition of LSD1 in mouse MFC cells assessed as accumulation of membrane PD-L1 at 2 uM incubated for 5 days; format: cell-based; parameters: scale not given: the % may be the effect or the level left; conditions: time 5.0 day

Molecule `N[C@H]1CC[C@H](N[C@@H]2C[C@H]2c2ccccc2)CC1` has an Activity of 40.4%.

target: T1, Lysine-specific histone demethylase 1A (Homo sapiens, UniProt O60341); assay: Inhibition of LSD1 in human MKN-45 cells assessed as accumulation of membrane PD-L1 at 2 uM incubated for 5 days; format: cell-based; parameters: scale not given: the % may be the effect or the level left; conditions: time 5.0 day

For `N[C@H]1CC[C@H](N[C@@H]2C[C@H]2c2ccccc2)CC1`, the Activity was 48.5%.

target: T1, Lysine-specific histone demethylase 1A; assay: Inhibition of recombinant LSD1 (unknown origin) extracted from Escherichia coli BL21 (DE3) using H3K4me2 peptide as substrate in presence of […] by Amplex Red assay; conditions: not given

`C=C1C(=O)OCC1C(O)c1cn(S(=O)(=O)c2ccccc2Br)c2ccc(Cl)cc12` (configuration not stated) and `C=C1C(=O)OCC1C(O)c1cn(S(=O)(=O)c2ccccc2F)c2ccc(Cl)cc12` (configuration not stated) are within 0.2 log units of each other in pIC50: 6.79 for the first, 6.66 for the second.

Compared with `C=C1C(=O)OCC1C(O)c1cn(S(=O)(=O)c2ccc(NC)c([N+](=O)[O-])c2)c2ccc(Cl)cc12` (configuration not stated), `C=C1C(=O)OCC1C(O)c1cn(S(=O)(=O)c2ccc(NCCC)c([N+](=O)[O-])c2)c2ccc(Cl)cc12` (configuration not stated) is 0.87 log units lower in pIC50: 7.05 for the first, 6.18 for the second. The first is the more potent here.

`C=C1C(=O)OCC1C(O)c1cn(S(=O)(=O)c2ccc(N3CCCC3)c([N+](=O)[O-])c2)c2ccc(Cl)cc12` (configuration not stated) and `C=C1C(=O)OCC1C(O)c1cn(S(=O)(=O)c2ccc(N3CCCCC3)c([N+](=O)[O-])c2)c2ccc(Cl)cc12` (configuration not stated) are within 0.2 log units of each other in pIC50: 5.61 for the first, 5.67 for the second.

First: C=C1C(=O)OCC1C(O)c1cn(S(=O)(=O)c2ccc(N3CCCC(NC(=O)OC(C)(C)C)C3)c([N+](=O)[O-])c2)c2ccc(Cl)cc12 (configuration not stated)
Second: C=C1C(=O)OCC1C(O)c1cn(S(=O)(=O)c2ccc(N3CCC(NC(=O)OC(C)(C)C)C3)c([N+](=O)[O-])c2)c2ccc(Cl)cc12 (configuration not stated)
The pIC50 of the first is 0.21 log units lower: 6.15 for the first, 6.36 for the second. The second is the more potent here.

`C=C1C(=O)OCC1C(O)c1cn(S(=O)(=O)c2ccc(F)cc2)c2ccc(Cl)cc12` (configuration not stated) and `C=C1C(=O)OCC1C(O)c1cn(S(=O)(=O)c2ccc(Cl)cc2)c2ccc(Cl)cc12` (configuration not stated) are within 0.2 log units of each other in pIC50: 5.87 for the first, 6.03 for the second.

First: C=C1C(=O)OCC1C(O)c1cn(S(=O)(=O)c2ccc(N3CCCN(C(=O)OC(C)(C)C)CC3)c([N+](=O)[O-])c2)c2ccc(Cl)cc12 (configuration not stated)
Second: C=C1C(=O)OCC1C(O)c1cn(S(=O)(=O)c2ccc(N3CCN(C(=O)OC(C)(C)C)CC3)c([N+](=O)[O-])c2)c2ccc(Cl)cc12 (configuration not stated)
The pIC50 of the first is 1.04 log units lower: 5.30 for the first, 6.34 for the second. The second is the more potent here.

`C=C1C(=O)OCC1C(O)c1cn(S(=O)(=O)c2ccc(OC(F)(F)F)cc2)c2ccc(Cl)cc12` (configuration not stated) and `C=C1C(=O)OCC1C(O)c1cn(S(=O)(=O)c2ccc(C(F)(F)F)cc2)c2ccc(Cl)cc12` (configuration not stated) are within 0.2 log units of each other in pIC50: 5.85 for the first, 5.84 for the second.

First: C=C1C(=O)OCC1C(O)c1cn(S(=O)(=O)c2ccc(Cl)cc2Cl)c2ccc(Cl)cc12 (configuration not stated)
Second: C=C1C(=O)OCC1C(O)c1cn(S(=O)(=O)c2ccc(Cl)c(Cl)c2)c2ccc(Cl)cc12 (configuration not stated)
The pIC50 of the first is 0.20 log units higher: 6.44 for the first, 6.24 for the second.

`C=C1C(=O)OCC1C(O)c1cn(S(=O)(=O)c2ccccc2)c2ccc(Cl)cc12` (configuration not stated) and `C=C1C(=O)OCC1C(O)c1cn(S(=O)(=O)c2cccc(Cl)c2)c2ccc(Cl)cc12` (configuration not stated) are within 0.2 log units of each other in pIC50: 5.95 for the first, 6.13 for the second.

Compared with `C=C1C(=O)OCC1C(O)c1cn(S(=O)(=O)c2ccc(CNCc3ccc(Cl)cc3)cc2)c2ccc(Cl)cc12` (configuration not stated), `C=C1C(=O)OCC1C(O)c1cn(S(=O)(=O)c2ccc(CBr)cc2)c2ccc(Cl)cc12` (configuration not stated) is 0.40 log units higher in pIC50: 5.63 for the first, 6.03 for the second.

`C=C1C(=O)OCC1C(O)c1cn(S(=O)(=O)c2ccc(N3CCN(CCO)CC3)c([N+](=O)[O-])c2)c2ccc(Cl)cc12` (configuration not stated) and `C=C1C(=O)OCC1C(O)c1cn(S(=O)(=O)c2ccc(N3CCN(CC)CC3)c([N+](=O)[O-])c2)c2ccc(Cl)cc12` (configuration not stated) are within 0.2 log units of each other in pIC50: 6.55 for the first, 6.54 for the second.

Going from `C=C1C(=O)OCC1C(O)c1cn(S(=O)(=O)c2ccc(N3CCN(C)CC3)c([N+](=O)[O-])c2)c2ccc(Cl)cc12` (configuration not stated) to `C=C1C(=O)OCC1C(O)c1cn(S(=O)(=O)c2ccc(Cl)c([N+](=O)[O-])c2)c2ccc(Cl)cc12` (configuration not stated), the pIC50 rises from 6.33 to 7.00 (0.67 log units).

Going from `C=C1C(=O)OCC1C(O)c1cn(S(=O)(=O)c2ccc(CN3CCN(C(=O)OC(C)(C)C)CC3)cc2)c2ccc(Cl)cc12` (configuration not stated) to `C=C1C(=O)OCC1C(O)c1cn(S(=O)(=O)c2ccc(CN3CCOCC3)cc2)c2ccc(Cl)cc12` (configuration not stated), the pIC50 rises from 5.93 to 6.22 (0.29 log units).

First: C=C1C(=O)OCC1C(O)c1cn(S(=O)(=O)c2cccc(C(F)(F)F)c2)c2ccc(Cl)cc12 (configuration not stated)
Second: C=C1C(=O)OCC1C(O)c1cn(S(=O)(=O)c2ccc(F)c(C(F)(F)F)c2)c2ccc(Cl)cc12 (configuration not stated)
The pIC50 of the first is 0.49 log units higher: 6.67 for the first, 6.18 for the second. The first is the more potent here.

`C=C1C(=O)OCC1C(O)c1cn(S(C)(=O)=O)c2ccc(Cl)cc12` (configuration not stated) and `C=C1C(=O)OCC1C(O)c1cn(S(=O)(=O)CCC)c2ccc(Cl)cc12` (configuration not stated) are within 0.2 log units of each other in pIC50: 5.04 for the first, 5.18 for the second.

Going from `C=C1C(=O)OCC1C(O)c1cn(S(=O)(=O)C2CC2)c2ccc(Cl)cc12` (configuration not stated) to `C=C1C(=O)OCC1C(O)c1cn(S(=O)(=O)c2ccccc2Cl)c2ccc(Cl)cc12` (configuration not stated), the pIC50 rises from 5.25 to 6.44 (1.19 log units). The second is the more potent here.

`C=C1C(=O)OCC1C(=O)c1cn(S(=O)(=O)c2ccc(Cl)cc2)c2ccc(Cl)cc12` (configuration not stated) and `C=C1C(=O)OC/C1=C\c1cn(S(=O)(=O)c2ccc(Cl)cc2)c2ccc(Cl)cc12` cannot be ordered by pIC50: < 5.00 for the first, < 5.00 for the second.

Compared with `C=C1C(=O)OCC1C(O)c1cn(S(=O)(=O)c2ccccc2[N+](=O)[O-])c2ccc(Cl)cc12` (configuration not stated), `C=C1C(=O)OCC1C(O)c1cn(S(=O)(=O)c2ccccc2C)c2ccc(Cl)cc12` (configuration not stated) is 0.46 log units higher in pIC50: 6.12 for the first, 6.58 for the second. The second is the more potent here.

`C=C1C(=O)OCC1C(O)c1ccn(S(=O)(=O)c2ccc(C)cc2)c1` (configuration not stated) and `C=C1C(=O)OCC1C(O)c1ccn(S(=O)(=O)c2ccc(Br)cc2)c1` (configuration not stated) cannot be ordered by pIC50: < 5.00 for the first, < 5.00 for the second.

`C=C1C(=O)OCC1C(O)c1cn(S(=O)(=O)c2ccc(OC)cc2)c2ccc(Cl)cc12` (configuration not stated) and `C=C1C(=O)OCC1C(O)c1cn(S(=O)(=O)c2ccc(Br)cc2)c2ccc(Cl)cc12` (configuration not stated) are within 0.2 log units of each other in pIC50: 6.07 for the first, 5.94 for the second.

`O=S(=O)(c1ccc(Cl)cc1)n1cc(CNCC2CC2)c2cc(Cl)ccc21` and `O=S(=O)(c1ccc(Cl)cc1)n1cc(CNC2CC2)c2cc(Cl)ccc21` cannot be ordered by pIC50: < 5.00 for the first, < 5.00 for the second.

Going from `C=C1C(=O)OCC1C(O)c1cn(S(=O)(=O)c2ccc([N+](=O)[O-])cc2)c2ccc(Cl)cc12` (configuration not stated) to `C=C1C(=O)OCC1C(O)c1cn(S(=O)(=O)c2cccc([N+](=O)[O-])c2)c2ccc(Cl)cc12` (configuration not stated), the pIC50 rises from 5.86 to 6.97 (1.11 log units).

Compared with `C=C1C(=O)OCC1C(O)c1cn(S(=O)(=O)c2ccc(N(CCC)CCC)c([N+](=O)[O-])c2)c2ccc(Cl)cc12` (configuration not stated), `C=C1C(=O)OCC1C(O)c1cn(S(=O)(=O)c2ccc(NCC(C)C)c([N+](=O)[O-])c2)c2ccc(Cl)cc12` (configuration not stated) is 1.41 log units higher in pIC50: 5.47 for the first, 6.88 for the second.

Compared with `C=C1C(=O)OCC1C(O)c1cn(S(=O)(=O)c2ccc(N3C[C@@H]4C[C@H]3CN4C(=O)OC(C)(C)C)c([N+](=O)[O-])c2)c2ccc(Cl)cc12` (some centres not stated), `C=C1C(=O)OCC1C(O)c1cn(S(=O)(=O)c2ccc(Cl)c(N)c2)c2ccc(Cl)cc12` (configuration not stated) is lower in pIC50: 5.48 for the first, < 5.30 for the second. The first is the more potent here.

Going from `C=C1C(=O)OCC1C(O)c1cn(S(=O)(=O)c2c(Cl)cccc2Cl)c2ccc(Cl)cc12` (configuration not stated) to `C=C1C(=O)OCC1C(O)c1ccn(S(=O)(=O)c2ccc(Cl)cc2)c1` (configuration not stated), the pIC50 falls from 6.01 to < 5.00.
